Laboratory results from ChEMBL document CHEMBL1158602, “Dihydro-pyrano[2,3-b]pyridines and tetrahydro-1,8-naphthyridines as CB1 receptor inverse agonists: synthesis, SAR and biological evaluation” (Bioorg Med Chem Lett, 2010).

Legend:
[1] = target: Cannabinoid receptor 2 (Homo sapiens, UniProt P34972); test: Binding affinity to human CB2 receptor
[2] = target: Cannabinoid receptor 1 (Homo sapiens, UniProt P21554); test: Binding affinity to human CB1 receptor
Chain of Cannabinoid receptor 1 (P21554 whole entry): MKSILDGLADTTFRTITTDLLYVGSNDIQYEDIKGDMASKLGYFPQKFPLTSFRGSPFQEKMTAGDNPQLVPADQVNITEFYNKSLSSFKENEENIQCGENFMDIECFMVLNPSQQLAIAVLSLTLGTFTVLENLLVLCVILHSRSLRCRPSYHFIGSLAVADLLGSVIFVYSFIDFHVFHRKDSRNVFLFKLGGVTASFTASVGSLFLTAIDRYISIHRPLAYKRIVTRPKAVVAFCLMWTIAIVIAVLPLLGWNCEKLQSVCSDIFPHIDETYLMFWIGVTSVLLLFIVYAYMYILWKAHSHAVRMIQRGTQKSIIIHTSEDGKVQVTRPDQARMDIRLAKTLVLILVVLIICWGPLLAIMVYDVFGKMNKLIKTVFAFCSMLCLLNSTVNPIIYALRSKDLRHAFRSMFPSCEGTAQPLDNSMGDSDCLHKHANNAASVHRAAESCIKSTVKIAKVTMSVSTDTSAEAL

Chain of Cannabinoid receptor 2 (P34972 whole entry): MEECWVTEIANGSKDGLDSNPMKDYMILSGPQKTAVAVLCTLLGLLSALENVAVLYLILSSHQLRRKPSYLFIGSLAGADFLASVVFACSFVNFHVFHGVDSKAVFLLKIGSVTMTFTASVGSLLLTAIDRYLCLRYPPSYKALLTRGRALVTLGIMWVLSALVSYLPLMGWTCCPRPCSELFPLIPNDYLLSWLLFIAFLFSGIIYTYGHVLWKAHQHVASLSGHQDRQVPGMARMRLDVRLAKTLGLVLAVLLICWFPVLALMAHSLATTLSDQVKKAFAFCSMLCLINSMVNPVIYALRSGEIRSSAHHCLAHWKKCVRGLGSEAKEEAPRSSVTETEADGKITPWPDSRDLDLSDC

Compound | IC50 [1] | IC50 [2]
O=C1CC2(CCS(=O)(=O)CC2)Oc2nc(-c3ccccc3Cl)c(-c3ccc(Cl)cc3)cc21 | 4100 nM | 15 nM
CC1(C)CC(NC(=O)CO)c2cc(-c3ccc(Cl)cc3)c(-c3ccccc3Cl)nc2O1 (single isomer, unassigned) [N-(7-(2-CHLOROPHENYL)-6-(4-CHLOROPHENYL)-2,2-DIMETHYL-3,4-DIHYDRO-2H-PYRANO[2,3-B]PYRIDIN-4-YL)-2-HYDROXYACETAMIDE (ENANTIOMERIC MIX)] | 10100 nM | 360 nM
CC1(C)CC(NC(=O)C(C)(C)CO)c2cc(-c3ccc(Cl)cc3)c(-c3ccc(Cl)cc3Cl)nc2O1 (single isomer, unassigned; enantiomer 2) [N-(6-(4-CHLOROPHENYL)-7-(2,4-DICHLOROPHENYL)-2,2-DIMETHYL-3,4-DIHYDRO-2H-PYRANO[2,3-B]PYRIDIN-4-YL)-3-HYDROXY-2,2-DIMETHYLPROPANAMIDE (ENANTIOMERIC MIX)] | 7600 nM | 34 nM
CC1(C)CC(NC(=O)CO)c2cc(-c3ccc(Cl)cc3)c(-c3ccccc3Cl)nc2O1 (single isomer, unassigned; enantiomer 1) [N-(7-(2-CHLOROPHENYL)-6-(4-CHLOROPHENYL)-2,2-DIMETHYL-3,4-DIHYDRO-2H-PYRANO[2,3-B]PYRIDIN-4-YL)-2-HYDROXYACETAMIDE (ENANTIOMERIC MIX)] | > 2000 nM | 46 nM
O=C1CC2(CCCC2)Oc2nc(-c3ccccc3Cl)c(-c3ccc(Cl)cc3)cc21 | 3000 nM | 23 nM
CC(C)(C)C1CC(=O)c2cc(-c3ccc(Cl)cc3)c(-c3ccccc3Cl)nc2O1 (racemic) | 3400 nM | 1.9 nM
COC1CC(C)(C)Oc2nc(-c3ccc(Cl)cc3Cl)c(-c3ccc(Cl)cc3)cc21 (racemic) | 3790 nM | 19 nM
CC(C)C1CC(=O)c2cc(-c3ccc(Cl)cc3)c(-c3ccccc3Cl)nc2O1 (racemic) | 3300 nM | 3.2 nM
CC(C)(O)C(=O)NC1CC2(CCCCC2)Oc2nc(-c3ccccc3Cl)c(-c3ccc(Cl)cc3)cc21 (single isomer, unassigned; enantiomer 2) [N-(7'-(2-CHLOROPHENYL)-6'-(4-CHLOROPHENYL)-3',4'-DIHYDROSPIRO[CYCLOHEXANE-1,2'-PYRANO[2,3-B]PYRIDINE]-4'-YL)-2-HYDROXY-2-METHYLPROPANAMIDE (ENANTIOMERIC MIX)] | 12000 nM | 18 nM
CC(=O)NC1CC2(CCCCC2)Oc2nc(-c3ccccc3Cl)c(-c3ccc(Cl)cc3)cc21 (racemic) | 3900 nM | 1.3 nM
CC1(C)CC(NC(=O)CO)c2cc(-c3ccc(Cl)cc3)c(-c3ccc(Cl)cc3Cl)nc2O1 (single isomer, unassigned; enantiomer 2) [N-(6-(4-CHLOROPHENYL)-7-(2,4-DICHLOROPHENYL)-2,2-DIMETHYL-3,4-DIHYDRO-2H-PYRANO[2,3-B]PYRIDIN-4-YL)-2-HYDROXYACETAMIDE (ENANTIOMERIC MIX)] | 6610 nM | 670 nM
CC(C)(CO)NC(=O)C1CC(C)(C)Oc2nc(-c3ccc(Cl)cc3Cl)c(-c3ccc(Cl)cc3)cc21 (single isomer, unassigned; enantiomer 2) [6-(4-CHLOROPHENYL)-7-(2,4-DICHLOROPHENYL)-N-(1-HYDROXY-2-METHYLPROPAN-2-YL)-2,2-DIMETHYL-3,4-DIHYDRO-2H-PYRANO[2,3-B]PYRIDINE-4-CARBOXAMIDE (ENANTIOMERIC MIX)] | 7450 nM | 150 nM
CCC1(CC)CC(=O)c2cc(-c3ccc(Cl)cc3)c(-c3ccccc3Cl)nc2O1 | 4200 nM | 15 nM
CC1(C)CC(NC(=O)C(C)(C)CO)c2cc(-c3ccc(Cl)cc3)c(-c3ccc(Cl)cc3Cl)nc2O1 (single isomer, unassigned; enantiomer 1) [N-(6-(4-CHLOROPHENYL)-7-(2,4-DICHLOROPHENYL)-2,2-DIMETHYL-3,4-DIHYDRO-2H-PYRANO[2,3-B]PYRIDIN-4-YL)-3-HYDROXY-2,2-DIMETHYLPROPANAMIDE (ENANTIOMERIC MIX)] | 570 nM | 2.1 nM
CN1CCC2(CC1)CC(=O)c1cc(-c3ccc(Cl)cc3)c(-c3ccccc3Cl)nc1O2 | > 2000 nM | 790 nM
